Data on two compounds can be found in ChEMBL document CHEMBL1772960, “N,N'-methyleno-didemnin A from the ascidian Trididemnum solidum. Complete NMR assignments and confirmation of the imidazolidinone ring by strategic analysis of 1J(CH)” (J Nat Prod, 2011).

The test system of this test is HCT-116. Briefly: Cytotoxicity against human HCT116 cells assessed as growth inhibition after 72 hrs by MTS assay. The settings on record: HCT-116, 72 h. The format is functional, cell-based. (In general: Tetrazolium dyes change colour on reduction, which living cells bring about.)

*1 amine or outer side, *2 acyl side, *3 side chain or, on linkers, in order; H or OH if unused. Where a SMILES comes first, the peptide text is derived from it. Bridges are numbered along the chain shown (N, C = ends). [ ]: non-standard residue; d: D form. The star is where a group is joined. X1 = CC[C@H](C)[C@@H](N[*:1])[C@@H](O)CC(=O)O[C@H](C(=O)[C@H](C)C(=O)[*:2])C(C)C; NMeY = CN[C@@H](Cc1ccc(O)cc1)C(=O)O; NMeL = CN[C@@H](CC(C)C)C(=O)O; dNMeL = CN[C@H](CC(C)C)C(=O)O; Pyruvoyl = CC(=O)C(=O)*

On to `CC[C@H](C)[C@H]1NC(=O)[C@@H](NC(=O)[C@H](CC(C)C)N(C)C(=O)[C@@H]2CCCN2C(=O)C(C)=O)[C@@H](C)OC(=O)[C@H](Cc2ccc(OC)cc2)N(C)C(=O)[C@@H]2CCCN2C(=O)[C@H](CC(C)C)NC(=O)[C@@H](C)C(=O)[C@H](C(C)C)OC(=O)C[C@@H]1O` (Pyruvoyl-P[NMeL]T[X1]LP[NMeY](Me); ester 3-C), for which the IC50 (usually the concentration that gives 50% inhibition) came out at 0.024 µM.
The figure for `CC[C@H](C)[C@H]1NC(=O)[C@@H](NC(=O)[C@@H](CC(C)C)NC)[C@@H](C)OC(=O)[C@H](Cc2ccc(OC)cc2)N(C)C(=O)[C@@H]2CCCN2C(=O)[C@H](CC(C)C)NC(=O)[C@@H](C)C(=O)[C@H](C(C)C)OC(=O)C[C@@H]1O` [DIDEMNIN A] (H-[dNMeL]T[X1]LP[NMeY](Me); ester 2-C) is 0.032 µM.
